{
  "source": "patent US6727066B2",
  "about": "“Genes expressed in treated human C3A liver cell cultures” (Incyte Corporation, priority 2000, dated 2004)",
  "system": "human C3A liver cell cultures",
  "test": "Microarray differential expression of cDNAs in treated human C3A liver cell cultures",
  "type": "cell-based",
  "details": "change vs untreated C3A cells",
  "from_the_text": "Incyte clones represent template sequences derived from the LIFESEQ GOLD assembled human sequence database (Incyte Genomics). In cases where more than one clone was available for a particular template, the 5′-most clone in the template was used on the microarray. The GENEALBUM GEM series 1-6 microarrays (Incyte Genomics) contain 52,616 array elements which represent 17,472 annotated clusters and 35,144 unannotated clusters. The HUMAN GENOME GEM series 1-3 microarrays (Incyte Genomics) contain 28,626 array elements which represent 10,068 annotated clusters and 18,558 unannotated clusters. For the UNIGEM series microarrays (Incyte Genomics), Incyte clones were mapped to non-redundant Unigene clusters (Unigene database (build 46), NCBI; Shuler (1997) J Mol Med 75:694-698), and the 5′ clone with the strongest BLAST alignment (at least 90% identity and 100 bp overlap) was chosen, verified, and used in the construction of the microarray. The UNIGEM V microarray (Incyte Genomics) contains 7075 array elements which represent 4610 annotated genes and 2,184 unannotated clusters.\nTo construct microarrays, cDNAs were amplified from bacterial cells using primers complementary to vector sequences flanking the cDNA insert. […] Amplified cDNAs were then purified using […]-400 columns (APB). Purified cDNAs were immobilized on polymer-coated glass slides. Glass microscope slides (Corning, Corning N.Y.) were cleaned by ultrasound in 0.1% SDS and acetone, with extensive distilled water washes between and after treatments. Glass slides were etched in 4% hydrofluoric acid (VWR Scientific Products, West Chester Pa.), washed thoroughly in distilled water, and coated with 0.05% aminopropyl silane (Sigma Aldrich) in 95% ethanol. Coated slides were cured in a 110° C. oven. cDNAs were applied to the coated glass substrate using a procedure described in U.S. Pat. No. 5,807,522. One microliter of the cDNA at an average concentration of 100 ng/ul was loaded into the open capillary printing element by a high-speed robotic apparatus which then deposited about 5 nl of cDNA per slide.\nMicroarrays were UV-crosslinked using a […] UV-crosslinker (Stratagene), and then washed at room temperature once in 0.2% SDS and three times in distilled water. Non-specific binding sites were blocked by incubation of microarrays in 0.2% casein in phosphate buffered saline (Tropix, Bedford Mass.) for 30 minutes at 60° C. followed by washes in 0.2% SDS and distilled water as before.\nEarly confluent C3A cells (ATTC, Manassas Va.) were treated with captopril (0.5, 2, 48, and 60 μg/ml) for 1, 3, and 6 hours. Early confluent C3A cells were treated with enalapril (0.5, 2, 48, and 60 μg/ml) for 1, 3, and 6 hours. Early confluent C3A cells were treated with LY294002 (0.5, 2, 15, and 25 μg/ml) for 1, 3, and 6 hours. Early confluent C3A cells were starved of insulin for 3 days prior to treatment, then treated with LY294002 (10 μM) for 2, 24, 36, and 72 hours in the presence of insulin. Early confluent C3A cells were treated with DES (1, 10, and 100 μM) for 1, 3, and 6 hours. Early confluent C3A cells were treated with dexamethasone (1 and 20 μM) for 0, 2, 6, and 24 hours. Early confluent C3A cells were treated with MCA (0.5 and 10 μM) for 2, 6, and 24 hours. In all cases mRNA from untreated early confluent cells were prepared in parallel as described below.\nCells were harvested and lysed in 1 ml of TRIZOL reagent (5×10^6 cells/ml; Life Technologies). The lysates were vortexed thoroughly and incubated at room temperature for 2-3 minutes and extracted with 0.5 ml chloroform. The extract was mixed, incubated at room temperature for 5 minutes, and centrifuged at 15,000 rpm for 15 minutes at 4° C. The aqueous layer was collected and an equal volume of isopropanol was added.",
  "data": [
    {"molecule": "CCOC(=O)C(C)(C)Oc1ccc(Cl)cc1", "note": "[Clofibrate]", "values": [
      {"measurement": "expression level of cDNA clone 63038", "value": "−3.95"},
      {"measurement": "expression level of cDNA clone 86390", "value": "−2.83"},
      {"measurement": "expression level of cDNA clone 118501", "value": 4.87},
      {"measurement": "expression level of cDNA clone 280932", "value": "−2.8"},
      {"measurement": "expression level of cDNA clone 341884", "value": "−2.32"},
      {"measurement": "expression level of cDNA clone 348143", "value": 2.11},
      {"measurement": "expression level of cDNA clone 407032", "value": "−3.05"},
      {"measurement": "expression level of cDNA clone 460779", "value": 2.26},
      {"measurement": "expression level of cDNA clone 630625", "value": 2.53},
      {"measurement": "expression level of cDNA clone 758192", "value": 3.11},
      {"measurement": "expression level of cDNA clone 818192", "value": 2.87},
      {"measurement": "expression level of cDNA clone 1308112", "value": 2.19},
      {"measurement": "expression level of cDNA clone 1315663", "value": "−3.18"},
      {"measurement": "expression level of cDNA clone 1379063", "value": "−2.38"},
      {"measurement": "expression level of cDNA clone 1448718", "value": "−2.95"},
      {"measurement": "expression level of cDNA clone 1464613", "value": "−2.39"},
      {"measurement": "expression level of cDNA clone 1511658", "value": "−3.56"},
      {"measurement": "expression level of cDNA clone 1519683", "value": "−2.12"},
      {"measurement": "expression level of cDNA clone 1559665", "value": "−4.058"},
      {"measurement": "expression level of cDNA clone 1619292", "value": "−3.07"},
      {"measurement": "expression level of cDNA clone 1696224", "value": 11.91},
      {"measurement": "expression level of cDNA clone 1705208", "value": 4.2},
      {"measurement": "expression level of cDNA clone 1711151", "value": 2.4},
      {"measurement": "expression level of cDNA clone 1838114", "value": "−2.65"},
      {"measurement": "expression level of cDNA clone 1845046", "value": "−2.5"},
      {"measurement": "expression level of cDNA clone 1846463", "value": 3.62},
      {"measurement": "expression level of cDNA clone 1890791", "value": 2.7},
      {"measurement": "expression level of cDNA clone 1920215", "value": "−2.59"},
      {"measurement": "expression level of cDNA clone 1922468", "value": 3.03},
      {"measurement": "expression level of cDNA clone 1926883", "value": 2.94},
      {"measurement": "expression level of cDNA clone 1930235", "value": 2.73},
      {"measurement": "expression level of cDNA clone 1958226", "value": "−2.52"},
      {"measurement": "expression level of cDNA clone 1966517", "value": "−2.8"},
      {"measurement": "expression level of cDNA clone 1969563", "value": 3.78},
      {"measurement": "expression level of cDNA clone 1998269", "value": 2.7},
      {"measurement": "expression level of cDNA clone 2042056", "value": 2.5},
      {"measurement": "expression level of cDNA clone 2055569", "value": "−2.76"},
      {"measurement": "expression level of cDNA clone 2123516", "value": 8.29},
      {"measurement": "expression level of cDNA clone 2273944", "value": 2.48},
      {"measurement": "expression level of cDNA clone 2278688", "value": "−2.37"},
      {"measurement": "expression level of cDNA clone 2352645", "value": 3.77},
      {"measurement": "expression level of cDNA clone 2365335", "value": "−2.67"},
      {"measurement": "expression level of cDNA clone 2382192", "value": "−2.54"},
      {"measurement": "expression level of cDNA clone 2470485", "value": "−2.45"},
      {"measurement": "expression level of cDNA clone 2740665", "value": "−2.54"},
      {"measurement": "expression level of cDNA clone 2757583", "value": 2.8},
      {"measurement": "expression level of cDNA clone 2769888", "value": "−2.79"},
      {"measurement": "expression level of cDNA clone 2884613", "value": 2.54},
      {"measurement": "expression level of cDNA clone 2890336", "value": "−2.38"},
      {"measurement": "expression level of cDNA clone 2921991", "value": "−3.1"},
      {"measurement": "expression level of cDNA clone 2933775", "value": 4},
      {"measurement": "expression level of cDNA clone 2957205", "value": 2.94},
      {"measurement": "expression level of cDNA clone 2999855", "value": 2.4},
      {"measurement": "expression level of cDNA clone 3038508", "value": 2.57},
      {"measurement": "expression level of cDNA clone 3136857", "value": "−3.24"},
      {"measurement": "expression level of cDNA clone 3222802", "value": 2.71},
      {"measurement": "expression level of cDNA clone 3380034", "value": "−3.15"},
      {"measurement": "expression level of cDNA clone 3494714", "value": "−2.53"},
      {"measurement": "expression level of cDNA clone 4066764", "value": "−2.3"},
      {"measurement": "expression level of cDNA clone 4087621", "value": "−3.55"},
      {"measurement": "expression level of cDNA clone 4110976", "value": 2.18},
      {"measurement": "expression level of cDNA clone 4246966", "value": 8.12},
      {"measurement": "expression level of cDNA clone 4287327", "value": "−3.47"},
      {"measurement": "expression level of cDNA clone 4721130", "value": 4.25},
      {"measurement": "expression level of cDNA clone 4795635", "value": "−2.38"},
      {"measurement": "expression level of cDNA clone 5047895", "value": "−2.44"},
      {"measurement": "expression level of cDNA clone 5077219", "value": "−2.63"},
      {"measurement": "expression level of cDNA clone 5398014", "value": "−2.67"},
      {"measurement": "expression level of cDNA clone 5398701", "value": "−3.55"},
      {"measurement": "expression level of cDNA clone 5541949", "value": 2.38}
    ]},
    {"molecule": "CC(C)OC(=O)C(C)(C)Oc1ccc(C(=O)c2ccc(Cl)cc2)cc1", "note": "[Fenofibrate, fenofibrate]", "values": [
      {"measurement": "expression level of cDNA clone 63038", "value": "−2.9"},
      {"measurement": "expression level of cDNA clone 280932", "value": "−2.67"},
      {"measurement": "expression level of cDNA clone 437481", "value": 2.44},
      {"measurement": "expression level of cDNA clone 443991", "value": 2.47},
      {"measurement": "expression level of cDNA clone 450856", "value": 2.49},
      {"measurement": "expression level of cDNA clone 452321", "value": 3},
      {"measurement": "expression level of cDNA clone 480791", "value": "−2.27"},
      {"measurement": "expression level of cDNA clone 630625", "value": 3.95},
      {"measurement": "expression level of cDNA clone 970905", "value": "−4.06"},
      {"measurement": "expression level of cDNA clone 1315663", "value": "−4.02"},
      {"measurement": "expression level of cDNA clone 1619292", "value": "−5"},
      {"measurement": "expression level of cDNA clone 1705208", "value": 2.83},
      {"measurement": "expression level of cDNA clone 1846463", "value": 6.58},
      {"measurement": "expression level of cDNA clone 1969563", "value": 6.8},
      {"measurement": "expression level of cDNA clone 1975268", "value": "−2.42"},
      {"measurement": "expression level of cDNA clone 2042056", "value": 5.46},
      {"measurement": "expression level of cDNA clone 2055569", "value": "−3.12"},
      {"measurement": "expression level of cDNA clone 2055867", "value": "−3.4"},
      {"measurement": "expression level of cDNA clone 2123516", "value": 4.6},
      {"measurement": "expression level of cDNA clone 2234853", "value": "−2.7"},
      {"measurement": "expression level of cDNA clone 2360580", "value": "−4.5"},
      {"measurement": "expression level of cDNA clone 2382195", "value": "−2.87"},
      {"measurement": "expression level of cDNA clone 2399162", "value": "−2.5"},
      {"measurement": "expression level of cDNA clone 2448149", "value": "−2.35"},
      {"measurement": "expression level of cDNA clone 2513883", "value": 4.47},
      {"measurement": "expression level of cDNA clone 2607921", "value": "−3.2"},
      {"measurement": "expression level of cDNA clone 2757583", "value": 4.75},
      {"measurement": "expression level of cDNA clone 2769888", "value": "−3.17"},
      {"measurement": "expression level of cDNA clone 2929484", "value": "−2.89"},
      {"measurement": "expression level of cDNA clone 2957205", "value": 2.44},
      {"measurement": "expression level of cDNA clone 3222802", "value": 2.55},
      {"measurement": "expression level of cDNA clone 3272165", "value": "−2.57"},
      {"measurement": "expression level of cDNA clone 4287327", "value": "−3.14"},
      {"measurement": "expression level of cDNA clone 4556538", "value": 2.53}
    ]}
  ]
}
